Experimental findings from publication PMC11292009, “Mapping protein binding sites by photoreactive fragment pharmacophores” (Communications Chemistry, 2024) are described below.

Molecules are shown by their SMILES.

Holding throughout (assay type): binding
In assay [1] the test system is T1, STAT5B-NTD.
T1 construct: His-SUMO (N, cleaved yes); made in house; host or cells: E. coli BL21 RILP
Description: Intact MS labeling screen, STAT5B-NTD conjugated with photocatalyst Ir-G2-PEG3-COOH (450 nm).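 Also: 0.14 µL of 100 mM DMSO fragment stock added to the conjugate.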 Particulars: 450 nm 10 min. Here is the method:
For the photocatalysis experiments, 1.4 µL photocatalyst (in 1.4 mM DMSO solution, 10 eq) was pre-incubated with 1.5 µL coupling reagent (0.75 µL, 5.6 mM EDC (20 eq)+0.75 µL 4.2 mM NHS and 1.5 µL 2.1 mM (15 eq) BOP for 30 min in dark. 30 µL STAT5B-NTD (in 7 µM concentration) was added and incubated further at room temperature overnight or at 37 °C for 1 h in dark. After addition of 0.14 µL PhP (in 100 mM DMSO) the solution was further incubated in dark for 1 h. Irradiation was carried out using 450 nm LED lamp (7.6Vx0A) for 10 min at 4 °C.
(§1) During the analysis, the column temperature was maintained at a constant 60 °C, and a sample volume of 3 µL was injected for each analysis. Data acquisition was conducted in positive ion mode within the m/z 100–2000 (mass-to-charge ratio) range. For the full protocol and spectra of the hits, see Supplementary Note 2.

Assay [2] has as its system T1, STAT5B-NTD. Description: Intact MS photoaffinity labeling screen, STAT5B-NTD (365 nm, UHPLC-MS).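 As to MS labeling percentage, STAT5B: 0.17 µL of 100 mM DMSO fragment stock added to the protein sample.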 Conditions: for MS labeling percentage, STAT5B: STAT5B-NTD, 365 nm 10 min, no photocatalyst; for STAT5B-NTD: experimental hit status flag (0/1). On the procedure:
STAT5B protein in 7 µM concentration in pH 7.4 PBS buffer was pre-incubated with 0.17 µL PhP (in 100 mM DMSO solution) for 1 h at room temperature in dark. Irradiation was carried out at 4 °C for 10 min using 365 nm UV lamp.
as §1

The next assay concerns T2, BRD4-BD1.
T2 construct: screened the PhP library against the first bromodomain of BRD4 (BRD4-BD1); purchased GSK/GenScript
Description: Intact MS photoaffinity labeling screen, BRD4-BD1 (302 nm, LCMS-TOF). Particulars: for MS labeling percentage, BRD4: BRD4-BD1, 302 nm 10 min; for BRD4-BD1: experimental hit status flag (0/1). On the procedure:
(§2) Using a plate-based format with one fragment per well, each fragment was incubated with the target proteins for 15 min to allow for the formation of non-covalent interactions. […] Finally, the results were directly analyzed from the plate using intact protein mass spectrometry by observing the mass additions that correspond to successful labeling (Fig. 2c, for labeling % values see Supplementary data). The library was first characterized against three benchmark proteins like carbonic anhydrase (CA), lysozyme (Lyo), and myoglobin (Myo).
(§3) The PhP library was screened against BRD4-BD1 and KRas^G12D as follows. […] The probe plate was placed on ice. 15 μL of protein stock solution (1 μM BRD4-BD1 (GSK/GenScript) or KRas^G12D (GSK/GenScript) in PBS buffer) was dispensed into wells containing fragments. The plate was left on ice for 15 min for incubation, then irradiated at 302 nm for 10 min, and centrifuged (1000 rpm, 1 min) to remove any bubbles. […] The deconvoluted spectra were analyzed using R Studio software.

For assay [3], the system named is carbonic anhydrase II (CA). The assay can be described thus: Intact protein MS photoaffinity labeling screen, carbonic anhydrase. Conditions: intact protein MS after 10 min irradiation. Here is the method: as §2
Another assay deals with T3, KRas^G12D.
T3 construct: purchased GSK/GenScript
The assay can be described thus: Intact MS photoaffinity labeling screen, KRas G12D (302 nm, LCMS-TOF). Particulars: for MS labeling percentage, KRas: KRas G12D, 302 nm 10 min; for KRAS-G12D: experimental hit status flag (0/1). Here is the method:
as §2, §3

The next assay concerns lysozyme (Lyo). Description: Intact protein MS photoaffinity labeling screen, lysozyme. Particulars: intact protein MS after 10 min irradiation. On the procedure:
as §2

A further assay concerns myoglobin (Myo). The assay can be described thus: Intact protein MS photoaffinity labeling screen, myoglobin. Conditions: intact protein MS after 10 min irradiation. On the procedure: as §2
[4] abbreviates: hit flag 1/0, sheet PhP, photoaffinity labeling screen.
The mark [5] stands for this setting: PhP library sheet "PhP", binary flag printed as 0 or 1, key not given.
Setting [6] is: sheet PhP, experimental hit status flag given as 0 or 1.

For `CN(C)Cc1nc2ccc(NC(=O)CCC3(C)N=N3)cc2o1` [PhP055, CN(C)Cc(n1)oc(c12)cc(cc2)NC(=O)CCC3(C)N=N3], the “MS labeling percentage, STAT5B+photocat” value in the assay with STAT5B-NTD [1] was determined as 0.8%. For the same molecule, in the assay with STAT5B-NTD [2], the “MS labeling percentage, STAT5B” value is 0%. In addition, the “STAT5B-NTD (experimental hit status)” value in the assay with STAT5B-NTD [2] (setting [4]) is given as 0. Moreover, in the assay with BRD4-BD1, the “MS labeling percentage, BRD4” value came to 0.7%. Besides, in the assay on BRD4-BD1 (setting [4]), the “BRD4-BD1 (experimental hit status)” value is recorded as 0. Further, the “MS labeling percentage, CA” value in assay [3] is given as 0%. In the assay with KRas^G12D, the “MS labeling percentage, KRas” value is listed as 0.3%. Besides, the “KRAS-G12D (experimental hit status)” value with KRas^G12D (setting [4]) stood at 0. Besides, in the assay with lysozyme (Lyo), the “MS labeling percentage, Lyo” value worked out at 0%. Also, the “MS labeling percentage, Myo” value in the assay on myoglobin (Myo) is 0%.
In the case of `CCOC(=O)[C@H](NC(=O)CCC1(C)N=N1)c1ccccc1` [PhP005, c1ccccc1[C@H](C(=O)OCC)NC(=O)CCC2(C)N=N2], in the assay on STAT5B-NTD [1], the “MS labeling percentage, STAT5B+photocat” value turned out to be 1.5%. In addition, in the assay on STAT5B-NTD [2], the “MS labeling percentage, STAT5B” value is 2% and the STAT5B-NTD was 0. For the same molecule, in the assay on BRD4-BD1, the “MS labeling percentage, BRD4” value is on record as 0.1% and the BRD4-BD1 is 0. Moreover, the “MS labeling percentage, CA” value in assay [3] is listed as 0.1%. In the assay on KRas^G12D, the “MS labeling percentage, KRas” value is reported as 0% and the KRAS-G12D turned out to be 0. The “MS labeling percentage, Lyo” value in the assay on lysozyme (Lyo) was 0%. Also, the “MS labeling percentage, Myo” value in the assay on myoglobin (Myo) is reported as 0.1%.
With `CC1(CCC(=O)NCc2ccc(N3CCC(CO)CC3)cc2)N=N1` [PhP010, N1=NC1(C)CCC(=O)NCc2ccc(cc2)N3CCC(CO)CC3], in the assay with STAT5B-NTD [1], the “MS labeling percentage, STAT5B+photocat” value amounted to 0%. In addition, in the assay with STAT5B-NTD [2], the “MS labeling percentage, STAT5B” value is given as 1% and the STAT5B-NTD was 0. Besides, in the assay on BRD4-BD1, the “MS labeling percentage, BRD4” value is 0.3% and the BRD4-BD1 turned out to be 0. In addition, the “MS labeling percentage, CA” value in assay [3] stood at 0%. Besides, in the assay on KRas^G12D, the “MS labeling percentage, KRas” value amounted to 0.5% and the KRAS-G12D was 0. For the same molecule, the “MS labeling percentage, Lyo” value in the assay on lysozyme (Lyo) was found to be 0%. In the assay with myoglobin (Myo), the “MS labeling percentage, Myo” value is listed as 0%.
Take `Cc1nnc(C(C)NC(=O)CCC2(C)N=N2)[nH]1` (stereo not drawn) [PhP090, Cc([nH]1)nnc1C(C)NC(=O)CCC2(C)N=N2]: the “MS labeling percentage, STAT5B+photocat” value in the assay with STAT5B-NTD [1] is listed as 0.5%. The “STAT5B-NTD (experimental hit status)” value with STAT5B-NTD [2] (setting [5]) worked out at 0. Moreover, the “MS labeling percentage, STAT5B” value with STAT5B-NTD [2] was 0%. For the same molecule, the “MS labeling percentage, BRD4” value with BRD4-BD1 amounted to 0.3%. Besides, in the assay on BRD4-BD1 (setting [5]), the “BRD4-BD1 (experimental hit status)” value was determined as 0. Also, the “MS labeling percentage, CA” value in assay [3] was 0.5%. Further, in the assay with KRas^G12D, the “MS labeling percentage, KRas” value was found to be 0.1%. Also, the “KRAS-G12D (experimental hit status)” value in the assay on KRas^G12D (setting [5]) was 0. In addition, the “MS labeling percentage, Lyo” value with lysozyme (Lyo) is reported as 0%. Besides, the “MS labeling percentage, Myo” value with myoglobin (Myo) was 0.2%.
Turning to `CCC(NC(=O)CCC1(C)N=N1)c1ccccc1OC` (stereo not drawn) [PhP032, N1=NC1(C)CCC(=O)NC(CC)c2ccccc2OC], the “MS labeling percentage, STAT5B+photocat” value in the assay with STAT5B-NTD [1] came to 1.9%. The “experimental hit status STAT5B-NTD” value in the assay on STAT5B-NTD [2] (0/1 flag) is given as 0. In the assay with STAT5B-NTD [2], the “MS labeling percentage, STAT5B” value came out at 2.9%. In the assay with BRD4-BD1 (0/1 flag), the “experimental hit status BRD4-BD1” value was 0. Further, in the assay on BRD4-BD1, the “MS labeling percentage, BRD4” value was 0.3%. Moreover, the “MS labeling percentage, CA” value in assay [3] is given as 0.2%. The “experimental hit status KRAS-G12D” value in the assay on KRas^G12D (0/1 flag) stood at 0. Further, in the assay on KRas^G12D, the “MS labeling percentage, KRas” value is listed as 0%. Further, the “MS labeling percentage, Lyo” value in the assay with lysozyme (Lyo) stood at 0%. Moreover, in the assay on myoglobin (Myo), the “MS labeling percentage, Myo” value is given as 0.3%.
Take `CC1(CCC(=O)NC(CO)Cc2c[nH]c3ccccc23)N=N1` (stereo not drawn) [PhP064, N1=NC1(C)CCC(=O)NC(CO)Cc(c[nH]2)c(c23)cccc3]: the “MS labeling percentage, STAT5B+photocat” value in the assay with STAT5B-NTD [1] is reported as 1.9%. For the same molecule, the “MS labeling percentage, STAT5B” value in the assay on STAT5B-NTD [2] is given as 2.9%. The “STAT5B-NTD (experimental hit status)” value in the assay with STAT5B-NTD [2] (setting [6]) is reported as 0. In the assay with BRD4-BD1, the “MS labeling percentage, BRD4” value was found to be 1.1%. Besides, the “BRD4-BD1 (experimental hit status)” value with BRD4-BD1 (setting [6]) is reported as 0. In addition, the “MS labeling percentage, CA” value in assay [3] is given as 0.5%. Also, the “MS labeling percentage, KRas” value in the assay with KRas^G12D was determined as 3.1%. The “KRAS-G12D (experimental hit status)” value in the assay on KRas^G12D (setting [6]) turned out to be 0. In addition, the “MS labeling percentage, Lyo” value in the assay on lysozyme (Lyo) was determined as 0.7%. Also, in the assay on myoglobin (Myo), the “MS labeling percentage, Myo” value is given as 0.3%.
